Where two headings read alike, the source gives them in different places.
Legend:
[1] = test system: G2 leukemic cell line; test: Fixed propidium iodide staining, flow cytometry; format: cell-based, human; conditions: 48 h
[2] = test system: B1 leukemic cell line; test: Fixed propidium iodide staining, flow cytometry; format: cell-based, human; conditions: 48 h
[3] = test system: W1 leukemic cell line; test: Fixed propidium iodide staining, flow cytometry; format: cell-based, human; conditions: 48 h
[4] = test system: AML-3 leukemic cell line; test: TUNEL, flow cytometry; format: cell-based, human; set-up: unit: %; conditions: 48 h
Description: (§1) Adherent cell lines were plated at 35×10^4 cells/60 cm^2 dish the day before exposure to compound. Suspension cells were seeded at 25×10^4 cells/mL in a 6 well dish (Falcon) the day of exposure to compound. Mononucleated, T-cell depleted normal bone marrow cells were seeded at 50×10^4 cells/mL in a 6 well dish the day of exposure to compound. Cells were exposed to solvent control or approximate MTT50 and MTT30 concentrations of the compound. After 48 h of exposure to the compound, cells were harvested and fixed with a final concentration of 4% formaldehyde. Fixed cells were stored at −20° C. in 70% ethanol for no more than 5 days. Approximately 10^5 cells were pelleted and labeled with 0.02 mM Biotin-dUTP and 12.5 U TdT enzyme in a 1× reaction buffer (200 mM potassium cacodylate, 25 mM Tris-HCl, 25 μg/mL bovine serum albumin, pH 6.6), 2.5 mM CoCl2 and 0.01 mM dTTP (Roche Molecular Biochemicals, Laval, QC, Canada) for 45 min at 37° C. Samples were washed and incubated in 200 μL of 1:1000 fluorescein isothiocyanate (FITC)-conjugated avidin (Sigma) in 4×SSC, 5% skim milk powder and 0.05% Tween-20 (Sigma). Following 1 h of mixing at room temperature, the samples were washed and resuspended in 500 μL of D-PBS containing 2.5 μg/mL DNase-free RNase (Boehringer Mannheim) and 10 μg/mL PI. Following a 30 min incubation at room temperature, cells were analyzed using a XL-MCL flow cytometer (Coulter Corporation, Miami, Fla.) and a FACScalibar cytometer (Becton Dickinson, San Jose, Calif.). Profiles shown are representative of one experiment.
as §1, with “? s” for “Cells”, “appr ? nate” for “approximate”, “of” for “of the”, “Pl.” for “PI.”

[5] = test system: Aspergillus flavus; test: Antifungal paper disk test, diameter of clear zone; format: cell-based; conditions: for zone of inhibition at 100 µg/disc: read-out: Diameter (mm) of clear Zone A. flavus
Description: (§2) Sulfur compounds were tested for antifungal activity against pure cultures of Aspergillus niger and Aspergillus flavus supplied by Ward's Natural Science Ltd (St. Catharines, Ontario, Canada). They were maintained on Sabouraud Dextrose Agar.
(§3) For the test, 6 agar plugs (5 mm diameter) were cut from a 5-8 day old colony and homogenized in distilled, sterilized water (2 ml). A portion of this suspension (0.5 ml) was transferred aseptically to a Petri plate with Sabouraud Dextrose Agar (15 ml) and spread evenly over the entire surface. […] Each test compound was applied to the disks as a solution (50 mg compound/10 ml acetone). Control disks were treated with neat acetone (20 μl). Test plates with fungal homogenates and disks were incubated at 18-20° C. for 2 days. For each test four replicate plates were used. The diameter of the clear zone surrounding the disk was taken as the indicator of antifungal activity.

[6] = test system: Aspergillus niger; test: Antifungal paper disk test, diameter of clear zone; format: cell-based; conditions: for zone of inhibition at 100 µg/disc: read-out: Diameter (mm) of clear Zone A. niger
Description: as §2, §3

[7] = test system: leukemic cells; test: Cell cycle and apoptosis by fixed PI and TUNEL; format: cell-based, human; conditions: in words
Description: Adherent cell lines were plated at 35×10^4 cells/60 cm^2 dish the day before exposure to compound. Suspension cells were seeded at 25×10^4 cells/mL in a 6 well dish (Falcon) the day of exposure to compound. Mononucleated, T-cell depleted normal bone marrow cells were seeded at 50×10^4 cells/mL in a 6 well dish the day of exposure to compound. Cells were exposed to solvent control or approximate MTT50 and MTT30 concentrations of the compound. After 48 h of exposure to the compound, cells were harvested, fixed in 80% ethanol for 1 h on ice and labeled with 50 μg/mL propidium iodide (Sigma). Approximately 10^6 cells were analyzed using a XL-MCL flow cytometer (Coulter Corporation, Miami, Fla.) and a FACScalibar cytometer (Becton Dickinson, San Jose, Calif.). Profiles shown are a representative.
as §1

[8] = Aspergillus flavus, 100 μg/disk, acetone
[9] = Aspergillus niger, 100 μg/disk, acetone

CSSCC(=O)c1ccccc1 [Compound P, phenacyl methyl disulphide]
% pre-G1 (Fixed PI) ([1]; dose 50 uM): 6%
% pre-G1 (Fixed PI) ([1]; dose 150 uM): 63%
% pre-G1 (Fixed PI) ([2]; dose 50 uM): 52%
% pre-G1 (Fixed PI) ([2]; dose 150 uM): 80%
% pre-G1 (Fixed PI) ([3]; dose 50 uM): 14%
% pre-G1 (Fixed PI) ([3]; dose 150 uM): 55%

CSCSCS(C)(=O)=O [B]
TUNEL FITC +ve ([4]; dose 107 uM (20 ug/mL)): 3.85

CSSCS(=O)(=O)c1ccc(C)cc1 [Compound C, α-p-toluenesulfonyl dimethyl disulphide]
TUNEL FITC +ve ([4]; dose 20.2 uM (10 ug/mL)): 22.4
Diameter (mm) of clear Zone A. flavus ([5]; 25 μg/disk, acetone): 8.0 mm
Diameter (mm) of clear Zone A. niger ([6]; 25 μg/disk, acetone): 10.9 mm
Cell cycle effect / apoptosis of leukemic cells (fixed PI and TUNEL) [7]: undergo apoptosis in all the phases of the cell cycle

CS(C)(=O)=O [Compound A, dimethyl sulfone]
Diameter (mm) of clear Zone A. flavus ([5]; 100 μg/disk, acetone): 0 mm
Diameter (mm) of clear Zone A. niger ([6]; 100 μg/disk, acetone): 0 mm

CSSCCS(C)(=O)=O [F, 2,3,6-trithiaheptane 6,6,-dioxide]
TUNEL FITC +ve ([4]; dose 45.8 uM (10 ug/mL)): 31.9
Diameter (mm) of clear Zone A. flavus ([5]; 100 μg/disk, acetone): 0 mm
Diameter (mm) of clear Zone A. niger ([6]; 100 μg/disk, acetone): 0 mm
Cell cycle effect / apoptosis of leukemic cells (fixed PI and TUNEL) [7]: accumulation of leukemic cells in the G2/M phase of the cell cycle prior to the cells undergoing apoptosis

CSSc1ccc([N+](=O)[O-])cc1 [M, methyl p-nitrophenyl disulphide]
% pre-G1 (Fixed PI) ([1]; dose 20 uM): 10%
% pre-G1 (Fixed PI) ([1]; dose 40 uM): 43%
% pre-G1 (Fixed PI) ([2]; dose 20 uM): 70%
% pre-G1 (Fixed PI) ([2]; dose 40 uM): 76%
% pre-G1 (Fixed PI) ([3]; dose 20 uM): 9%
% pre-G1 (Fixed PI) ([3]; dose 40 uM): 28%
zone of inhibition at 10 µg/disc ([5]; Aspergillus flavus, 10 μg/disk, acetone): 4 mm
Diameter (mm) of clear Zone A. niger ([6]; 10 μg/disk, acetone, listed as p-CH3SS(C6H4)NO2): 3.8 mm
zone of inhibition at 10 µg/disc ([6]; Aspergillus niger, 10 μg/disk, acetone): 3.9 mm

COC(=O)CSSC [H, methyl 3,4-dithiopentanoate]
TUNEL FITC +ve ([4]; dose 65.7 uM (10 ug/mL)): 10.2
Diameter (mm) of clear Zone A. flavus ([5]; 100 μg/disk, acetone): 0 mm
Diameter (mm) of clear Zone A. niger ([6]; 100 μg/disk, acetone): 0 mm
Cell cycle effect / apoptosis of leukemic cells (fixed PI and TUNEL) [7]: accumulation of leukemic cells in the G2/M phase of the cell cycle prior to the cells undergoing apoptosis

c1ccc(SSc2ccccc2)cc1 [D, diphenyl disulphide]
zone of inhibition at 100 µg/disc [5, 8]: 0 mm
zone of inhibition at 100 µg/disc [6, 9]: 0 mm
Cell cycle effect / apoptosis of leukemic cells (fixed PI and TUNEL) [7]: undergo apoptosis in all the phases of the cell cycle

CSSCOC(C)=O [I, 2,3-dithiabutyl acetate]
TUNEL FITC +ve ([4]; dose 32.8 uM (5 ug/mL)): 57.3
zone of inhibition at 100 µg/disc [5, 8]: 2.3 mm
zone of inhibition at 100 µg/disc [6, 9]: 2.3 mm
Cell cycle effect / apoptosis of leukemic cells (fixed PI and TUNEL) [7]: undergo apoptosis in all the phases of the cell cycle

CS(=O)(=O)CSCS(C)(=O)=O [G, 2,4,6-trithiaheptane 2,2,6,6-tetraoxide]
TUNEL FITC +ve ([4]; dose 45.8 uM (10 ug/mL)): 3.0
zone of inhibition at 100 µg/disc [5, 8]: 0 mm
zone of inhibition at 100 µg/disc [6, 9]: 0 mm

CSCSSC [Compound N, 2,3,5-trithiahexane]
% G2 increase (Fixed PI) ([1]; dose 50 uM): +8%
% pre-G1 (Fixed PI) ([1]; dose 50 uM): 16%
% G2 increase (Fixed PI) ([1]; dose 150 uM): +8%
% pre-G1 (Fixed PI) ([1]; dose 150 uM): 29%
% G2 increase (Fixed PI) ([2]; dose 50 uM): +2%
% G2 increase (Fixed PI) ([2]; dose 150 uM): −1%
% pre-G1 (Fixed PI) ([2]; dose 150 uM): 35%
% G2 increase (Fixed PI) ([3]; dose 50 uM): +10%
% pre-G1 (Fixed PI) ([3]; dose 50 uM): 22%
% pre-G1 (Fixed PI) ([3]; dose 150 uM): 33%
zone of inhibition at 100 µg/disc ([5]; Aspergillus flavus): 0 mm
zone of inhibition at 100 µg/disc ([6]; Aspergillus niger): 0 mm

CS(=O)(=O)CSSc1ccccc1 [E, 5-phenyl-2,4,5-trithiapentane 2,2-dioxide]
zone of inhibition at 25 µg/disc ([5]; Aspergillus flavus, 25 μg/disk, acetone): 1.8 mm
zone of inhibition at 25 µg/disc ([6]; Aspergillus niger, 25 μg/disk, acetone): 0.8 mm
Cell cycle effect / apoptosis of leukemic cells (fixed PI and TUNEL) [7]: undergo apoptosis in all the phases of the cell cycle

CCC(=O)OCSSc1ccccc1 [Compound Q, 1-phenyl-1,2-dithiapropyl propionate]
% G2 increase (Fixed PI) ([1]; dose 20 uM): −1%
% pre-G1 (Fixed PI) ([1]; dose 20 uM): 31%
% G2 increase (Fixed PI) ([1]; dose 40 uM): −3%
% pre-G1 (Fixed PI) ([1]; dose 40 uM): 55%
% G2 increase (Fixed PI) ([2]; dose 20 uM): 0%
% pre-G1 (Fixed PI) ([2]; dose 20 uM): 5%
% G2 increase (Fixed PI) ([2]; dose 40 uM): −3%
% pre-G1 (Fixed PI) ([2]; dose 40 uM): 20%
% G2 increase (Fixed PI) ([3]; dose 20 uM): +4%
% pre-G1 (Fixed PI) ([3]; dose 20 uM): 20%
% G2 increase (Fixed PI) ([3]; dose 40 uM): +12%
% pre-G1 (Fixed PI) ([3]; dose 40 uM): 49%
zone of inhibition at 2.5 µg/disc ([5]; Aspergillus flavus, 2.5 μg/disk, acetone): 2.3 mm
zone of inhibition at 2.5 µg/disc ([6]; Aspergillus niger, 2.5 μg/disk, acetone): 3.5 mm
